Values of other authors as cited in patent US6126939A, “Anti-inflammatory dipeptide and pharmaceutical composition thereof” (Yeda Research and Development Co. Ltd., priority 1997, dated 2000).

Experiments:
blood sugar levels = conditions: rats, i.p. 100 mg/kg
[1] = in vitro test assay
macrophage migration = conditions: literature
IL-1 = conditions: literature

| Compound | hypoglycemic activity (lowering of blood sugar levels) (blood sugar levels) | antilipolytic activity [1] | macrophage migration (macrophage migration) | secretion of IL-1 macrophages (IL-1) |
| --- | --- | --- | --- | --- |
| Glu-Arg-OMe | having hypoglycemic activity | have antilipolytic activity |  |  |
| Asn-Arg-NH2 | having hypoglycemic activity | have antilipolytic activity |  |  |
| Arg-Asn-NH2 | having hypoglycemic activity | have antilipolytic activity |  |  |
| Gln-Arg-NH2 | having hypoglycemic activity | have antilipolytic activity |  |  |
| COc1ccc2c(C(=S)N(C)CC(=O)O)cccc2c1C(F)(F)F [Tolrestat] |  |  | Another MIF |  |
| Gln-Arg-OMe | having hypoglycemic activity | no significant antilipolytic activity |  |  |
| Thr-Lys-Pro [TKP] |  |  | inhibit macrophage migration | reduce secretion of IL-1 |
| Arg-Asn | having hypoglycemic activity | no significant antilipolytic activity |  |  |
| Glu-Arg-NH2 | did not significantly lower blood sugar levels | have antilipolytic activity |  |  |
